Experiments:
[1] = tested on: ginsenoside glycosidases from Tremella; assay: Hydrolysis of Rb1 with ginsenoside glycosidases from Tremella; assay type: biochemical, Tremella sp. FFCCDL-12 g; details: 1% Rb1 in acetate buffer containing 20% ethanol, 40° C., 20 hours
Method: Tremella sp. FFCCDL-12 g (available from Food Fermentation Culture Collection of Dalian Institute of Light Industry) was cultured on a solid medium containing 125 g of ginseng powder, 374 g of wheat bran and 500 ml of water for 5 to 7 days. Then 2500 ml of 0.01 M acetate buffer pH 5.0 was added to the solid medium to stand for 2 hours. Insolubles were removed by centrifugation and approximately 2000 ml liquid was obtained. (NH4)2SO4 powder was added to the liquid with stirring to 70% saturation. The solution was stored at 4° C. overnight and centrifuged to collect the pellets. The pellets were resuspended and the suspension was dialyzed against 0.01M acetate buffer pH 5. Then the solution was diluted in 0.01 M acetate buffer to a volume of 150 ml. Impurities were removed by centrifugation, and crude enzyme solution was obtained.
10 ml of the enzyme solution was allowed to react with 10 ml of 1% Rb1 in acetate buffer containing 20% ethanol at 40° C. for 20 hours. […] The optimal reaction temperature for the enzymes is 50° C. and the optimal pH is pH 5.5.

[2] = tested on: Enzymes from Animal Liver; assay: Hydrolysis of Rb1 with enzymes from animal liver; assay type: biochemical, bovine; details: 1% Rb1 solution, pH 5, 20% ethanol, 40° C., 20 hours
Method: 100 g of bovine liver was minced and added to 300 ml of 0.01 M acetate buffer pH 5 for extraction under room temperature for two hours. The mixture was centrifuged and (NH4)2SO4 was added to the supernatant to 70% saturation to precipitate the enzymes. The mixture was stored at 4° C. overnight. Precipitates were collected by centrifugation and dialyzed against 0.01 M acetate buffer pH 5. Impurities were removed and 15 ml of enzyme solution was obtained. 10 ml of the enzyme solution was allowed to react with 10 ml of 1% Rb1 solution (in 0.01 M acetate buffer pH 5 containing 20% ethanol) at 40° C. for 20 hours.

Enzymes from Malts = assay: Hydrolysis of Rb1 with enzymes from malts; assay type: biochemical, malt; details: 1% Rb1 solution, pH 5, 20% ethanol, 40° C., 20 hours
Method: 200 g of malt was ground and added to 1000 ml of 0.01 M acetate buffer pH 5 for extraction under room temperature for two hours. The mixture was filtrated. To the supernatant 3 volumes of ethanol was added and stand overnight. Precipitates were collected to which 50 ml of 0.01 M acetate buffer pH 5 was added. Insolubles were removed and enzyme solution was obtained. 10 ml of the enzyme solution was allowed to react with 10 ml of 1% Rb1 solution (in 0.01 M acetate buffer pH 5 containing 20% ethanol) at 40° C. for 20 hours. The product was detected by TLC. As a result, more than 95% Rb1 was converted to Rd, F2, C-K and Rg3 and the like.

[3] = tested on: bacterial ginsenoside glycosidases; assay: Hydrolysis of Rd with ginsenoside glycosidases from bacteria; assay type: biochemical, Bacillus sp. JF; details: 0.5% Rd in acetate buffer containing 20% ethanol, 70° C., 16 hours
Method: Thermophilic and aerobic Bacillus sp. JF (Fengxie Jin et al., J. Gen. Appl. Microbiol., 36, 415-434, 1990) was cultured with aeration and stirring in a medium containing 0.5% by weight of ginseng extracts, 1% by weight of wheat bran extracts and 0.3% tryptone with a pH of 7.2 at 60° C. for 36 hours. Cells were removed by centrifugation and 3000 ml of 95% ethanol was added to 1000 ml of the cell-free supernatant. The solution was allowed to stand at 4° C. overnight and then centrifuged to collect the pellets. The enzyme protein pellets were dissolved in 50 ml of 0.01M acetate buffer pH 5. Insoluble materials were removed by centrifugation and a crude enzyme solution was obtained.
10 ml of the enzyme solution was allowed to react with 10 ml of 0.5% Rd in acetate buffer containing 20% ethanol at 70° C. for 16 hours. […] The enzymes can also hydrolyze β-(1→2)-glucoside of Rg3 to give Rh2.

[4] = tested on: ginsenoside glycosidases from Streptomyces; assay: Hydrolysis of Rd with ginsenoside glycosidases from Streptomyces; assay type: biochemical, Streptomyces sp. FFCCDL-2 g; details: 1% Rd in acetate buffer containing 20% ethanol, 50° C., 20 hours
Method: Streptomyces sp. FFCCDL-2 g (available from Food Fermentation Culture Collection of Dalian Institute of Light Industry) was cultured at 30° C. for 48 hours in a medium containing 1% by weight of ginseng extracts and 3% by weight of wheat bran extracts. Cells were removed by centrifugation, after which (NH4)2SO4 powder was added to 300 ml of the cell-free supernatant to 70% saturation to precipitate the enzymes. The solution was stored at 4° C. overnight and centrifuged to collect the pellets. The pellets were resuspended and the suspension was dialyzed against 0.01M acetate buffer pH 5. Impurities were removed by centrifugation, and 15 ml of crude enzyme solution was obtained.
10 ml of the enzyme solution was allowed to react with 10 ml of 1% Rd in acetate buffer containing 20% ethanol at 50° C. for 20 hours.

[5] = tested on: Ginsenoside Glycosidases from Yeast; assay: Hydrolysis of Rd with ginsenoside glycosidases from yeast; assay type: biochemical, Candida sp. FFCCDL-2 g; details: 0.5% Rd in acetate buffer, 60° C., 12 hours
Method: Candida sp. FFCCDL-2 g (available from Food Fermentation Culture Collection of Dalian Institute of Light Industry) was cultured with shaking at 30° C. for 56 hours in a medium containing 2% by weight of ginseng extracts and 8% by weight of malt extracts. Cells were removed by centrifugation, after which (NH4)2SO4 powder was added to 500 ml of the cell-free supernatant to 65% saturation. The solution was dialyzed against 0.01M acetate buffer pH 5. Insolubles were removed by centrifugation, and 25 ml of crude enzyme solution was obtained.
10 ml of the enzyme solution was allowed to react with 10 ml of 0.5% Rd in acetate buffer at 60° C. for 12 hours. […] The enzymes can also hydrolyze β-(1→2)-glucoside of Rg3 to give Rh2.

## CC(C)=CCC[C@](C)(O[C@@H]1O[C@H](CO[C@@H]2O[C@H](CO)[C@@H](O)[C@H](O)[C@H]2O)[C@@H](O)[C@H](O)[C@H]1O)[C@H]1CC[C@]2(C)[C@@H]1[C@H](O)C[C@@H]1[C@@]3(C)CC[C@H](O[C@@H]4O[C@H](CO)[C@@H](O)[C@H](O)[C@H]4O[C@@H]4O[C@H](CO)[C@@H](O)[C@H](O)[C@H]4O)C(C)(C)[C@@H]3CC[C@]12C [Rb1, ginsenoside Rb1]
[1]
  C-K in the product mixture: 35%
  F2 in the product mixture: 40%
  Rd in the product mixture: 25%
[2]
  Rb1 converted to ginsenosides with lower sugar contents: 50%
Enzymes from Malts
  Rb1 converted to Rd, F2, C-K and Rg3 and the like: more than 95%

## CC(C)=CCC[C@](C)(O[C@@H]1O[C@H](CO)[C@@H](O)[C@H](O)[C@H]1O)[C@H]1CC[C@]2(C)[C@@H]1[C@H](O)C[C@@H]1[C@@]3(C)CC[C@H](O[C@@H]4O[C@H](CO)[C@@H](O)[C@H](O)[C@H]4O[C@@H]4O[C@H](CO)[C@@H](O)[C@H](O)[C@H]4O)C(C)(C)[C@@H]3CC[C@]12C [Rd, ginsenoside Rd]
[3]
  Rd converted to ginsenoside F2: 60%
[4]
  Rd converted to ginsenoside F2: 50%
[5]
  Rd converted to ginsenoside F2: 73%
